# Reference: patent US7579371B2, “Methods of using [3.2.0] heterocyclic compounds and analogs thereof” (Nereus Pharmaceuticals, Inc., priority 2004, dated 2009)
# pEC50: −log10 of the molar value. “And” between values parts separate entries of the source, which are not always exact repeats. Equal entries are not always repeated. Where two headings read alike, the source gives them in different places. Peptide text beside a SMILES is read from it. * marks the point of attachment. Cbz = O=C(OCc1ccccc1)*
# How the values were obtained:
# [1] = molecular target: rabbit muscle 20S proteasome, trypsin-like activity (Oryctolagus cuniculus, UniProt G1SWK8); assay: Trypsin-like activity of purified rabbit 20S proteasome (Boc-LRR-AMC)
# NCI-H292 = assay: Cell growth inhibition assay (resazurin, 48 h); type: cell-based, human; details: Homo sapiens, NCI-H292, 48 h
# MES-SA/Dx5 = assay: Cell growth inhibition assay (resazurin, 48 h); details: for pEC50: MES-SA/Dx5, 48 h
# Experimental: (§1) Concentrations ranging from 6.32 μM to 2 nM were tested for II-2 and II-4.
# The multidrug resistant MES-SA/Dx5 tumor cell line was derived from the human uterine sarcoma MES-SA tumor cell line and expresses elevated P-Glycoprotein (P-gp), an ATP dependent efflux pump.
# HL-60/MX2 = assay: Cell growth inhibition assay (resazurin, 48 h); details: HL-60/MX2, 48 h
# Experimental: The DNA binding agent Mitoxantrone was included as a control, as HL-60/MX2 cells are reported to be resistant to this chemotherapeutic agent (Harker W. G. et al. 1989).
# as §1
# HL-60/MX2 is a multidrug resistant tumor cell line derived from the human promyelocytic leukemia cell line, HL-60 and expresses reduced topoisomerase II activity. […] Mitoxantrone, the topoisomerase II targeting agent was included as a control.
# U266 = assay: Cell growth inhibition assay (resazurin, 48 h); type: cell-based; details: Homo sapiens, U-266, 48 h, U266, 48 h; read-out: EC50
# NF-κB = assay: NF-κB-mediated luciferase reporter gene assay, HEK293 NF-κB/Luc cells, TNF-α stimulation; type: cell-based; details: Homo sapiens, HEK293, 1 hr pretreatment, 6 hours TNF-α; read-out: EC50, NF-κB-mediated luciferase activity
# Experimental: The HEK293 NF-κB/luciferase reporter cell line is a derivative of the human embryonic kidney cell line (ATCC; CRL-1573) and carries a luciferase reporter gene under the regulation of 5× NF-κB binding sites. […] When performing the luciferase assay, the DMEM basal medium was replaced with phenol-red free DMEM basal medium and the G418 was omitted.
# For NF-κB-mediated luciferase assays, HEK293 NF-κB/luciferase cells were seeded at 1.5×10^4 cells/well in 90 μl phenol-red free DMEM complete medium into Corning 3917 white opaque-bottom tissue culture plates. For Formulae II-2, II-4, II-5A and II-18, a 400 μM starting dilution was made in 100% DMSO and this dilution was used to generate an 8-point half log dilution series. […] For formula II-20, a 2.5 mM or 8 mM starting dilution was made in 100% DMSO and the final test concentrations ranged from 6.3 μM to 2.0 nM or 20 μM to 6.3 nM respectively. The plates were returned to the incubator for 1 hour. After 1 hr pretreatment, 10 μl of a 50 ng/ml TNF-α solution, prepared in the phenol-red free DMEM medium was added, and the plates were incubated for an additional 6 hours.
# At the end of the TNF-α stimulation, 100 μl of Steady Lite HTS luciferase reagent (Packard Bioscience) was added to each well and the plates were left undisturbed for 10 min at room temperature before measuring the luciferase activity. The relative luciferase units (RLU) were measured by using a Fusion microplate fluorometer (Packard Bioscience).
# NF-κB inducible luciferase activity was measured at 6 hours.
# PC-3 = assay: Cell growth inhibition assay (resazurin, 48 h); details: Homo sapiens, PC-3, 48 h
# [2] = molecular target: T1, 20S proteasome chymotrypsin-like activity in PC-3 cells (Homo sapiens, UniProt P28074); assay: Chymotrypsin-like activity of 20S proteasomes in treated PC-3 cells; type: cell-based; details: 1 hr
# T1 construct: PC-3 (ATCC, CRL-1435), the human prostate cancer cell line; host or cells: PC-3
# T1 sequence (P28074 60-263): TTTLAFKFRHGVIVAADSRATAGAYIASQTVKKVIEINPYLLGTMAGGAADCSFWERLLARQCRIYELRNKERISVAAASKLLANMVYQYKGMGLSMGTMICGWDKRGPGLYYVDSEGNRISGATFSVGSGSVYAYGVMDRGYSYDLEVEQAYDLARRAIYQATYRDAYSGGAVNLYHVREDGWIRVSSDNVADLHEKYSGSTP
# Experimental: PC-3 (ATCC, CRL-1435), the human prostate cancer cell line, was cultured in F12K medium supplemented with 2 mM L-glutamine, 100 units/ml penicillin, 100 μg/ml streptomycin and 10% heat inactivated fetal bovine serum at 37° C., 5% CO2 and 95% humidified air. […] DMSO was used as the vehicle control at a final concentration of 0.1%. Following 1 hr incubation of PC-3 cells with the compounds, the cells were washed 3× with ice-cold 1× Dulbecco's Phosphate-Buffered Saline (DPBS, Mediatech, Herndon, Va.). […] Cell debris was pelleted by centrifugation at 14,000 rpm for 10 min, 4° C. and supernatants (=cell lysates) were transferred to a new tube. Protein concentration was determined by the BCA protein assay kit (Pierce Biotechnology, Rockford, Ill.). […] The released coumarin (AMC) was measured fluorometrically by using λex=390 nm and λem=460 nm. The assay was performed in a microtiter plate (Corning 3904) and followed kinetically with measurements every five minutes for 2 hr. The total amount of protein used for each assay was 20 μg. The final concentration of Suc-LLVY-AMC and DMSO was 20 μM and 0.2%, respectively. Results are presented as the percent inhibition of the 20S proteasome chymotrypsin-like activity relative to the DMSO control.
# RPMI 8226 = assay: Cell growth inhibition assay (resazurin, 48 h); details: RPMI 8226
# Experimental: RPMI 8226 (CCL-155), HT-29 (HTB-38), and B16-F10 (CRL-6475) cells were purchased from ATCC. RPMI 8226 cells were maintained in RPMI 1640 media supplemented with 10% (v/v) FBS, 2 mM L-glutamine, 1 mM sodium pyruvate and Penicillin/Streptomycin at 100 IU/ml and 100 μg/ml, respectively. HT-29 cells were maintained in McCoys 5A supplemented with 10% (v/v) FBS, 2 mM L-glutamine, 1 mM sodium pyruvate, 1% (v/v) non-essential amino acids, 10 mM HEPES and Penicillin/Streptomycin at 100 IU/ml and 100 μg/ml, respectively. B16-F10 cells were maintained in DMEM supplemented with 10% (v/v) FBS, 2 mM L-glutamine, 10 mM HEPES and Penicillin/Streptomycin at 100 IU/ml and 100 μg/ml, respectively.
# RPMI 8226 cells were seeded at 2×10^4 cells/well in 90 μl RPMI media containing 10% (v/v) FBS or 1% (v/v) FBS into 96 well black-walled, clear-bottom tissue culture plates. […] Formulae II-16, II-17 and Formula II-18 were serially diluted in media containing 1% or 10% FBS and added in triplicate to the test wells. […] The final concentration of Formula II-18 ranged from 2 μM to 630 pM.
# [3] = molecular target: rabbit muscle 20S proteasome, chymotrypsin-like activity (Oryctolagus cuniculus, UniProt G1T4Q9); assay: Chymotrypsin-like activity of purified rabbit muscle 20S proteasome (suc-LLVY-AMC); type: biochemical
# Experimental: This peptide substrate is specific for the chymotrypsin-like enzyme activity of the proteasome.
# Omuralide was prepared as a 10 mM stock in DMSO and stored in 5 μL aliquots at −80° C. […] The assay measures the hydrolysis of Suc-LLVY-AMC into Suc-LLVY and AMC. The released coumarin (AMC) was measured fluorometrically by using λex=390 nm and λem=460 nm. The assays were performed in a microtiter plate (Corning 3904), and followed kinetically with measurements every five minutes. The instrument used was a Thermo Lab Systems Fluoroskan, with the incubation chamber set to 37° C. The assays were performed according to the manufacturer's protocol, with the following changes. The proteasome was activated as described with SDS, and held on ice prior to the assay. […] Ten microliters of each dose were added in triplicate to the assay plate, and 190 μL of the activated proteasome was added and mixed. The samples were pre-incubated in the Fluoroskan for 5 minutes at 37° C. Substrate was added and the kinetics of AMC were followed for one hour.
# Stability in solution = type: physicochemical
# Source text: Compound VI-1B: UV (Acetonitrile/H2O) λmax 235 (sh) nm; ESMS, m/z 585.2 (M+H)^+.
# RAW264.7 cells [4] = details: Tang et al., Infect Immun 67:3055 (1999); read-out: EC50 in the LeTx assay; cited from earlier work
# RAW264.7 cells [5] = assay: cells; details: Mus musculus, RAW264.7, read-out: viability, compound + LeTx
# Chain of rabbit muscle 20S proteasome, trypsin-like activity (G1SWK8 1-271): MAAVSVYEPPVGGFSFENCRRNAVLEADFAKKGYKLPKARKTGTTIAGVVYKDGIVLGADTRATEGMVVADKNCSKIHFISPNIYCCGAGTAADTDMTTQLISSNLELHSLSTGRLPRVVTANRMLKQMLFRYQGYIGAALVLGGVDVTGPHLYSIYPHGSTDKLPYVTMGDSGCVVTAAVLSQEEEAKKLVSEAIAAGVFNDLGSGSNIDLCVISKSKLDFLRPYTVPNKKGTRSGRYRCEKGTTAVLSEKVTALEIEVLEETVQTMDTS
# Chain of rabbit muscle 20S proteasome, chymotrypsin-like activity (G1T4Q9 1-263): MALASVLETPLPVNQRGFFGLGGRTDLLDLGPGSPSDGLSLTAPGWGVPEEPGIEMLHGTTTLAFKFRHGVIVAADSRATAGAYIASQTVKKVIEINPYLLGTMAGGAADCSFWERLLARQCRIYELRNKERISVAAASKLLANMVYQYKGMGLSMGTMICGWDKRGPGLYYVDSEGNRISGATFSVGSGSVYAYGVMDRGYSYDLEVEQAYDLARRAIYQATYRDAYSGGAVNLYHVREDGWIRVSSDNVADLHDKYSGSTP
compound,measurement,setting,value
"C[C@@]12OC(=O)[C@]1([C@@H](O)[C@H]1CCC[C@H]3O[C@@H]13)NC(=O)[C@@H]2CCCl (single isomer, unassigned) [Formula II-5A]",pEC50,[1],7.06
C[C@@]12OC(=O)[C@]1([C@@H](O)C1CCCCC1)NC(=O)[C@@H]2CCCl [Formula II-2],pEC50,NCI-H292,6.40
same,pEC50,NCI-H292; read-out: EC50,6.49
same,pEC50,MES-SA/Dx5; Homo sapiens,6.66
same,pEC50,MES-SA/Dx5,6.86
same,pEC50,"HL-60/MX2; Homo sapiens, HL60/MX2, 48 h",6.85
CC[C@H]1C(=O)N[C@@]2([C@@H](O)C3CCCCC3)C(=O)O[C@@]12C [Formula II-3],pEC50,U266,< 4.70
same,pEC50,MES-SA/Dx5; Homo sapiens,< 4.70
same,pEC50,NF-κB,< 4.70
same,pEC50,PC-3,< 4.70
C[C@@]12OC(=O)[C@]1([C@@H](O)C1CCCCC1)NC(=O)[C@@H]2CCBr [Formula II-4],pEC50,NCI-H292,6.67
same,pEC50,NCI-H292; read-out: EC50,6.72
same,pEC50,U266,7.41
same,pEC50,MES-SA/Dx5; Homo sapiens,6.75
same,pEC50,MES-SA/Dx5,7.03
C[C@@]12OC(=O)[C@]1([C@@H](O)[C@H]1CCC[C@@H]3O[C@H]13)NC(=O)[C@@H]2CCCl [Formula II-5B],pEC50,[1],6.12 and 6.15
CC[C@H]1C(=O)N[C@@]2([C@@H](O)[C@@H]3C=CCCC3)C(=O)O[C@@]12C [Formula II-17],% inhibition of the chymotrypsin-like activity of 20S proteasomes in PC-3 cell lysates,[2]; 100 nM,26%
same,inhibition at 0.01 µM,"[2]; PC-3, read-out: % inhibition of the chymotrypsin-like activity of 20S proteasomes in PC-3 cell lysates, 10 nM",16%
same,inhibition at 0.1 µM,"[2]; PC-3, read-out: % inhibition of the chymotrypsin-like activity of 20S proteasomes in PC-3 cell lysates, 100 nM",26%
same,inhibition at 1 µM,"[2]; PC-3, read-out: % inhibition of the chymotrypsin-like activity of 20S proteasomes in PC-3 cell lysates, 1,000 nM",49%
same,inhibition at 10 µM,"[2]; PC-3, read-out: % inhibition of the chymotrypsin-like activity of 20S proteasomes in PC-3 cell lysates, 10,000 nM",79%
C[C@@]12OC(=O)[C@]1([C@@H](O)[C@@H]1C=CCCC1)NC(=O)[C@@H]2CCBr [Formula II-18],% cytotoxicity,RPMI 8226,"94, 94%"
C[C@@]12OC(=O)[C@]1(C(=O)C1=CC(O)CCC1)NC(=O)[C@]2(C)CCCl (some centres unmarked) [Formula II-31],pEC50,[3],< 4.70
C[C@]1(O)[C@@H](CCCl)C(=O)N[C@]1(C(=O)SCC(NC(=O)CCC(N)C(=O)O)C(=O)NCC(=O)O)[C@@H](O)[C@@H]1C=CCCC1 (some centres unmarked) [Formula II-48],stability in solution,Stability in solution,unstable in solution
C[C@@]12OC(=O)[C@]1([C@@H](O)[C@H]1CCC[C@H](Cl)[C@H]1O)NC(=O)[C@@H]2CCCl [Formula IV-3C],pEC50,NF-κB,< 4.70
CC(=O)N[C@@H](CSC(=O)[C@]1([C@@H](O)C(C)C)NC(=O)[C@H](C)[C@@H]1O)C(=O)O [Lactacystin],pEC50,RAW264.7 cells [4],5.52
CC(C)C[C@@H](C=O)NC(=O)[C@H](CC(C)C)NC(=O)[C@H](CC(C)C)NC(=O)OCc1ccccc1 [MG132] (Cbz-Leu-Leu-Leu-aldehyde),pEC50,RAW264.7 cells [4],5.52
O=C1c2c(O)ccc(O)c2C(=O)c2c(NCCNCCO)ccc(NCCNCCO)c21 [Mitoxantrone],pEC50,HL-60/MX2,6.08 and 5.87 and 5.93
same,pEC50,"HL-60/MX2; Homo sapiens, HL60/MX2, 48 h",5.85
"CC(C)[C@H](O)[C@@]12NC(=O)[C@H](C)[C@@H]1OC2=O [Omuralide, reference compound]",% inhibition of the chymotrypsin-like activity of 20S proteasomes in PC-3 cell lysates,[2]; 100 nM,36%
same,viability at 1 µM,RAW264.7 cells [5],37%
"CC(=O)O[C@H]1C(=O)[C@@]2(C)[C@H]([C@H](OC(=O)c3ccccc3)[C@]3(O)C[C@H](OC(=O)[C@H](O)[C@@H](NC(=O)c4ccccc4)c4ccccc4)C(C)=C1C3(C)C)[C@]1(OC(C)=O)CO[C@@H]1C[C@@H]2O [Paclitaxel, reference compound]",% cytotoxicity,MES-SA/Dx5,78 ± 1%
